Test results as given in ChEMBL document CHEMBL1201862, “PubChem BioAssay data set” (2004).
Active and inactive are the calls of the source.

Assays:
[1] = inhibitors of non-replicating M. tuberculosis, dose response, luciferase, dry powder (AID 651619); format: functional; details: Mycobacterium tuberculosis
[2] = inhibitors of non-replicating M. tuberculosis, dose response, luciferase, dry powder (AID 651620); format: functional; details: Mycobacterium tuberculosis
[3] = growth inhibition of replicating M. tuberculosis, dose response, counter-screen, dry powder, IC90 (AID 651617); format: functional; details: Mycobacterium tuberculosis
[4] = biological target: Oxysterols receptor LXR-beta (Homo sapiens, UniProt P55055); format: functional, cell-based;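 further: Cell-based luminescence dose-response assay of agonist activity at LXR, run as a confirmatory counterscreen to a daf-12 agonist screen; HEK293 cells with Gal4-LXR fusion and GAL4-driven luciferase reporter; agonist potency from rising luciferase signal of a Gal4-LXR reporter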
Chain of Oxysterols receptor LXR-beta (P55055 whole entry, the tested form may be a part): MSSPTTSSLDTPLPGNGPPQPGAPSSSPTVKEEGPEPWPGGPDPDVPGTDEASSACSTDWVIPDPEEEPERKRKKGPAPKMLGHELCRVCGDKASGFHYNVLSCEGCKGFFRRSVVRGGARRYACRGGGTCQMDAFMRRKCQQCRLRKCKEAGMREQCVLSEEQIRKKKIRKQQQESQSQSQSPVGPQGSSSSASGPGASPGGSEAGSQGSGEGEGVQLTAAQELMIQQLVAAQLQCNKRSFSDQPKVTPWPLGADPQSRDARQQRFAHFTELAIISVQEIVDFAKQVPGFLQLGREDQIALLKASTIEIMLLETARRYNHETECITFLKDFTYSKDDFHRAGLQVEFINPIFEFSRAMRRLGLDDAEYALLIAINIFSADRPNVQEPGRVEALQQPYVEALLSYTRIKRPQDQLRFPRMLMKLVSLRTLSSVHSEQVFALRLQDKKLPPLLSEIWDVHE

cells [5] = assay: cells
Phospholipase D2 = Phospholipase D2 (Homo sapiens, UniProt O14939); assay: PLD2 Cellular Concentration Response Study.; format: functional
Chain of Phospholipase D2 (O14939 whole entry): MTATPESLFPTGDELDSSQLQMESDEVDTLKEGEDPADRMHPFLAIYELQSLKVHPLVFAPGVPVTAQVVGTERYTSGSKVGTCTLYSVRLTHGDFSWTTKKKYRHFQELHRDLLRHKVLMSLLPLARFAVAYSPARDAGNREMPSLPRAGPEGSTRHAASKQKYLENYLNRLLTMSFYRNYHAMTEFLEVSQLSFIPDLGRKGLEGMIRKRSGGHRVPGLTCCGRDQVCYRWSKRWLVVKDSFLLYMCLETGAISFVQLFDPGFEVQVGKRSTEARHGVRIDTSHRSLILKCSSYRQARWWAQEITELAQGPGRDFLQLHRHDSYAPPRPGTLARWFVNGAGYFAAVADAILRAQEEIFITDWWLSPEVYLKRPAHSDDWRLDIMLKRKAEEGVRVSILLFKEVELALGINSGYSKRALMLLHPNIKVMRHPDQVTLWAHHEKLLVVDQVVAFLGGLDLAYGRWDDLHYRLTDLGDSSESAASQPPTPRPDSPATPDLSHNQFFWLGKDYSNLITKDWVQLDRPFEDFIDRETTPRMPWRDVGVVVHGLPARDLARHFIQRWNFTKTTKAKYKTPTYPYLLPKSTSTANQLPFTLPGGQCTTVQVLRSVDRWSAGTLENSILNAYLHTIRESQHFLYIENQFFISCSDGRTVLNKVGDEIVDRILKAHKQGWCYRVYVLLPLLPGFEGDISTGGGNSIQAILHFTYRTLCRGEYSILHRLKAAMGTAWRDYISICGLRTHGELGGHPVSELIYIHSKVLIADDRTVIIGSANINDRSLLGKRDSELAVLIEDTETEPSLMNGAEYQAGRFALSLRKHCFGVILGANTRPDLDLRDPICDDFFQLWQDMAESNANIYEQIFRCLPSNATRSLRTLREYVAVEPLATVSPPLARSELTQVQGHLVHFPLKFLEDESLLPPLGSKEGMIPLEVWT

Phospholipase D1 = Phospholipase D1 (Homo sapiens, UniProt Q13393); assay: PLD1 Cellular Concentration Response Study.; format: functional
Chain of Phospholipase D1 (Q13393 whole entry): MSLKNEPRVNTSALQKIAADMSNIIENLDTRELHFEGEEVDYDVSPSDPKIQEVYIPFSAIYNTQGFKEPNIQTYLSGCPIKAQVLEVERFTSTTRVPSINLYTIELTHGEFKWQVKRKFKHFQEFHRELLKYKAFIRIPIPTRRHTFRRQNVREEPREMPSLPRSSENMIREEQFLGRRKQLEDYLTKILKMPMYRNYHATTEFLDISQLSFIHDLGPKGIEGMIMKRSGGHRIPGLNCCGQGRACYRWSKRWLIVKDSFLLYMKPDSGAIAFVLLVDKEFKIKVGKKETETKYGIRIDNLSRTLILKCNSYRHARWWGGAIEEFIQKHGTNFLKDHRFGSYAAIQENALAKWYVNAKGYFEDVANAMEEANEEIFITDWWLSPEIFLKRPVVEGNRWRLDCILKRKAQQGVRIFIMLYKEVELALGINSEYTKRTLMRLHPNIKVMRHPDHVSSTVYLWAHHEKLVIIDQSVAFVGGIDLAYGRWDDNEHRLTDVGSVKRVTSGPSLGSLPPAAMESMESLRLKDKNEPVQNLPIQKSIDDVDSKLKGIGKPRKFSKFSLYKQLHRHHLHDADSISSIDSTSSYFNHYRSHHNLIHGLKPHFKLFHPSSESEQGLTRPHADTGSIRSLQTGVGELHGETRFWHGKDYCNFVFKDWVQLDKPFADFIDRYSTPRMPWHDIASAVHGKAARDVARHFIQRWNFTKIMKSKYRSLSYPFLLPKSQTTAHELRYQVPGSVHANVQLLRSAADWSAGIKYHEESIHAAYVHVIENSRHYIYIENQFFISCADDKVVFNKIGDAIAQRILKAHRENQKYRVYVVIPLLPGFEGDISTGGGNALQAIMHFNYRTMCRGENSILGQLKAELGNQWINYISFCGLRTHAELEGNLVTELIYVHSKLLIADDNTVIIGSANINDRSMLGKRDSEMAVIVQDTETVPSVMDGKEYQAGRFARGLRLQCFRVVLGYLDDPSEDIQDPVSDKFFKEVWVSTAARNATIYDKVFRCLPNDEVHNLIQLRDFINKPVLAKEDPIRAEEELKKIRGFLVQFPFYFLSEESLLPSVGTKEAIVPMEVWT

[6] = biological target: RNA-editing ligase 1, mitochondrial (Trypanosoma brucei brucei, UniProt P86926); assay: inhibition of trypanosome RNA editing ligase – biochemical, fluorescence, Trypanosoma brucei, dose response (AID 1117295); format: functional
Chain of RNA-editing ligase 1, mitochondrial (P86926 whole entry): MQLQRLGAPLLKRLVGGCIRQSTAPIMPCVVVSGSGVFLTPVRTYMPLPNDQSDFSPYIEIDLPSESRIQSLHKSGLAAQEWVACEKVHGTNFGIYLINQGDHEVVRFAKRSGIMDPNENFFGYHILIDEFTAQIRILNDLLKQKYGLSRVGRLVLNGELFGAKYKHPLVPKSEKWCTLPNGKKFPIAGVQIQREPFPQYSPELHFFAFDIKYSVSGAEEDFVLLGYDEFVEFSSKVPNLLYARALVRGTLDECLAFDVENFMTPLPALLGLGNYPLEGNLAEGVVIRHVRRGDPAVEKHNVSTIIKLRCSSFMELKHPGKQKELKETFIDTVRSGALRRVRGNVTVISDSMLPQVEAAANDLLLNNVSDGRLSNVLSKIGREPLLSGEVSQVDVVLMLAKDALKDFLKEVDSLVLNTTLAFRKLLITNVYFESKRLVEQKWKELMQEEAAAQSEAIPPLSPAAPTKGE

[7] = Dd2 malaria parasite growth inhibition potency – SYBR Green, dry powder samples, dose response (AID 1159566); format: functional, cell-based;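 further: potency for growth inhibition with lower SYBR green DNA signal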
[8] = growth inhibition of PfATP4-mutant resistant parasites – NITD609-resistant line, SYBR Green, dry powder, dose response (AID 1159571); format: functional, cell-based;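 further: parasites synchronized at ring stage by sorbitol before testing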
[9] = growth inhibition of yeast DHODH-expressing 3D7 parasites – SYBR Green, dry powder samples, dose response (AID 1159570); format: functional, cell-based;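 further: parasite growth measured after 72 hours of compound exposure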
[10] = toxicity to human HepG2 hepatoma cells – cell-based, plate reader, dry powder samples, cytotoxicity control, dose response (AID 1159569); format: functional;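 further: inhibitor potency with signal falling toward the positive control level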
[11] = P. falciparum Dd2 growth inhibitors, dose response, SYBR Green, cherry-picked samples (AID 1159567); format: functional, cell-based
[12] = Late stage results for the probe development effort to identify inhibitors of Plasmodium falciparum gametocytes: Luminescence-based cell-based high throughput dose response assay to identify inhibitors of viability of late stage Plasmodium falciparum gametocytes.; format: functional
[13] = toxicity to HepG2 liver cells – cell-based, plate reader, dry powder, set 6, cytotoxicity control, dose response (AID 743311); format: functional
cells [14] = details: HEK293
[15] = Dd2 parasite growth inhibition in erythrocytes – SYBR Green, dry powder samples, set 9, dose response (AID 1159568); format: functional, cell-based
[16] = toxicity to human hepatoma HepG2 cells – cell-based, cherry-picked samples, cytotoxicity control, dose response (AID 1159577); format: functional
[17] = biological target: T1, Corticotropin-releasing factor receptor 2/Corticotropin-releasing factor-binding protein (Homo sapiens, UniProt P24387+Q13324); assay: activators of CRF receptor 2 with binding protein – uHTS hits, confirmation (AID 602473); format: functional; details: read-out: EC50_Mean
T1 sequence (Q13324 whole entry): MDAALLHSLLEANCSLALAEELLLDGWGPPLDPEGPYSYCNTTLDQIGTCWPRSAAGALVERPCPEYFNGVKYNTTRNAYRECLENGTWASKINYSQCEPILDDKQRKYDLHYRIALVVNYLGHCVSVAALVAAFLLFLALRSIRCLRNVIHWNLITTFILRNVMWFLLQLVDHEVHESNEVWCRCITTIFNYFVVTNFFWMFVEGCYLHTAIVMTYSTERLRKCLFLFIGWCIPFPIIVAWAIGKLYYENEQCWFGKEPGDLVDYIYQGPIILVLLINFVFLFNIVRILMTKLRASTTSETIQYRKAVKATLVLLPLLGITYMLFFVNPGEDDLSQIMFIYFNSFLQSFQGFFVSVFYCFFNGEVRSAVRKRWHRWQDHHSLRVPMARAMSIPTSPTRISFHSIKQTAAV
T1 sequence (P24387 whole entry): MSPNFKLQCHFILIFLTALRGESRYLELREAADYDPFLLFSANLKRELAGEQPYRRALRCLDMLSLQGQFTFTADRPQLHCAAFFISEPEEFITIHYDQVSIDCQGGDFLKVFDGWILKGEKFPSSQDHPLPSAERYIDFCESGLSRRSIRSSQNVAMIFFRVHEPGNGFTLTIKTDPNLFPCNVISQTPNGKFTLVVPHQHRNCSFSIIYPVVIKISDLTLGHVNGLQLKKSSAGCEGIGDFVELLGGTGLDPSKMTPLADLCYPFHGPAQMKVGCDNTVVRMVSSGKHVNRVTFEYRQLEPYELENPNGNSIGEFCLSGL

[18] = biological target: T1, Corticotropin-releasing factor receptor 2/Corticotropin-releasing factor-binding protein; assay: Dose Response confirmation of uHTS hits for small molecule antagonists of the CRF-binding protein and CRF-R2 receptor complex.; format: functional; details: read-out: IC50_Mean
[19] = rise of 2N DNA cells, HeLa – IC50, dose response (AID 1117349); format: functional, cell-based
[20] = rise of 4N DNA cells, HeLa – IC50, dose response (AID 1117351); format: functional, cell-based

[N-]=[N+]=NCCOCCNC(=O)CCCOc1ccc(CSc2nnc(-c3ccc(F)cc3)o2)nc1
IC90 [1]: 16 µM (active)
IC90 [2]: 16 µM (active)
IC90 [3]: 250 µM (active)

CCOC(=O)c1s/c(=N\C(=O)c2cccs2)n(C)c1C
EC50 [4]: > 67.5 µM (inactive)
EC50 (cells [5]): > 67.5 µM (inactive)

O=C(NCCN1CCC2(CC1)C(=O)NCN2CC1CC1)c1ccc2ccccc2c1
IC50 (Phospholipase D2): 2.05 µM (active)
IC50 (Phospholipase D1): 20 µM (active)

C=CCNC1=NC(c2cccc(F)c2)C(C(=O)OC)=C(C)N1Cc1cccc(C(F)(F)F)c1 (stereo not drawn)
IC50 [6]: > 96.6 µM (inactive)

C/C=C/c1ccc([C@H]2[C@@H](CO)N(CC3CCCC3)[C@@H]2CNC(=O)NC(C)C)cc1
AC50 [7]: 1.91 µM (active)
AC50 [8]: 2.41 µM (active)
AC50 [9]: 2.73 µM (active)
AC50 [10]: 25.4 µM (active)
AC50 [11]: 2.71 µM (active)

O=C(Nc1nccs1)c1cn(-c2ccccc2)nc1-c1cccnc1
IC50 [12]: > 74.4 µM (inactive)

Cc1ccc(C(C)C)c(OCCn2c(N)nc3ccccc32)c1
AC50 [13]: 4.5 µM (active)
AC50 (cells [14]): 19.1 µM (active)

C(=C\c1ccc([C@H]2[C@@H]3CN(Cc4nccs4)C[C@H]2N3)cc1)/c1ccccc1
AC50 [15]: 11.2 µM (active)

Cc1cccc(-c2ccc([C@@H]3[C@@H]4CN(C(=O)C5CCCC5)C[C@H]3N4)cc2)c1
AC50 [16]: 10.7 µM (active)
AC50 [11]: 4.39 µM (active)

Nc1nc(F)nc2c1ncn2[C@@H]1O[C@H](CO)[C@@H](O)[C@@H]1O [FLUDARABINE]
EC50 [17]: > 53 µM (inactive)
IC50 [18]: > 47.1 µM (inactive)
IC50 [19]: > 10 µM (inactive)
IC50 [20]: > 10 µM (inactive)
